In PubChem BioAssay AID264 (DTP/NCI, 2004):
“And” between values parts separate entries of the source, which are not always exact repeats. Equal values may be shown once. Records with an inconclusive call do not appear.

System: nude mice, LX-1 lung xenograft intrarenal, tumor weight T/C
Assay: NCI In Vivo Anticancer Drug Screen. Data for tumor model Human Lung LX-1 Xenograft (intrarenal inoculation) in NU/NU Swiss (nude) mice
Conditions: endpoint: mean tumor weight change, higher = larger tumour
Method in brief: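 Antitumor effect is expressed as a ratio: the mean tumor measurement of the drug-treated group relative to that of the vehicle-dosed control group.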

[1] = dose: 150.0 mg/kg/injection, schedule: Q04DX003 (sc), vehicle: saline with Tween-80
[2] = dose: 16.0 mg/kg/injection, schedule: Q01DX010 (sc), vehicle: saline
[3] = dose: 600.0 mg/kg/injection, schedule: Q04DX003 (sc), vehicle: saline with Tween-80
[4] = dose: 1200.0 mg/kg/injection, schedule: Q04DX003 (sc), vehicle: saline with Tween-80
[5] = dose: 4.0 mg/kg/injection, schedule: Q01DX010 (sc), vehicle: saline
[6] = dose: 8.0 mg/kg/injection, schedule: Q01DX010 (sc), vehicle: saline
[7] = dose: 32.0 mg/kg/injection, schedule: Q01DX010 (sc), vehicle: saline
[8] = dose: 300.0 mg/kg/injection, schedule: Q04DX003 (sc), vehicle: saline with Tween-80
[9] = dose: 75.0 mg/kg/injection, schedule: Q04DX003 (sc), vehicle: Klucel (hydroxypropylcellulose) (HPC)
[10] = dose: 150.0 mg/kg/injection, schedule: Q04DX003 (sc), vehicle: Klucel (hydroxypropylcellulose) (HPC)

With `CCCCCC(O)C1C(=O)OC(C)C(O)/C=C/C=C/C=C/C=C\C=C(\C)C(O)CC(O)CC(O)CC(O)CC(O)CC(O)CC1O` (configuration not stated) the T/C (dose: 150.0 mg/kg/injection, schedule: Q04DX003 (sc), vehicle: distilled water + alcohol) was 107 % of control, the T/C (dose: 300.0 mg/kg/injection, schedule: Q04DX003 (sc), vehicle: distilled water + alcohol) was 117 % of control and the T/C (dose: 600.0 mg/kg/injection, schedule: Q04DX003 (sc), vehicle: distilled water + alcohol) was 98 % of control. The T/C (dose: 1200.0 mg/kg/injection, schedule: Q04DX003 (sc), vehicle: distilled water + alcohol) was 105 % of control.
For `Cc1ccccc1SSc1ccccc1C`, the T/C (dose: 200.0 mg/kg/injection, schedule: Q01DX010 (sc), vehicle: saline with Tween-80) was 268 % of control and the T/C (dose: 400.0 mg/kg/injection, schedule: Q01DX010 (sc), vehicle: saline with Tween-80) was 99 % of control.
`CCN1C=C/C(=C\C=C/c2cc[n+](CC)c3ccccc23)c2ccccc21` was tested, and the T/C (dose: 0.25 mg/kg/injection, schedule: Q01DX010 (sc), vehicle: saline) was 195 % of control.
`ClC1=C(Cl)C(Cl)=C(Cl)C1=Cc1ccccc1` was tested, and the T/C (dose: 50.0 mg/kg/injection, schedule: Q04DX003 (sc), vehicle: saline with Tween-80) was 96 % of control, the T/C (dose: 200.0 mg/kg/injection, schedule: Q04DX003 (sc), vehicle: saline with Tween-80) was 91 % of control and the T/C (dose: 400.0 mg/kg/injection, schedule: Q04DX003 (sc), vehicle: saline with Tween-80) was 105 % of control.
With `COc1cc(C(=O)N/N=C/c2cccc([N+](=O)[O-])c2)cc(OC)c1OC` the T/C [1] was 86 % of control.
For `CCOC(=O)C(N)CSC(=O)NC` (configuration not stated), the T/C (dose: 50.0 mg/kg/injection, schedule: Q04DX003 (sc), vehicle: saline) was 165 % of control and the T/C (dose: 400.0 mg/kg/injection, schedule: Q04DX003 (sc), vehicle: saline) was 94 % of control.
In the case of `C1OC1CN1CCN(CC2CO2)CC1` (configuration not stated), the T/C [2] is reported as 27 % of control.
`CC(=O)NC(C=O)OCC=O` (configuration not stated) was tested, and the T/C (dose: 100.0 mg/kg/injection, schedule: Q04DX003 (sc), vehicle: water) was 116 % of control, the T/C (dose: 200.0 mg/kg/injection, schedule: Q04DX003 (sc), vehicle: water) was 112 % of control and the T/C (dose: 400.0 mg/kg/injection, schedule: Q04DX003 (sc), vehicle: water) was 121 % of control.
For `CC1(C)OC1CS(=O)c1ccccc1` (configuration not stated), the T/C [3] was 121 % of control and the T/C [4] was 89 % of control.
With `COc1cc([C@@H]2c3cc4c(cc3[C@@H](OC3OC5CO[C@@H](c6cccs6)OC5C(O)C3O)[C@H]3COC(=O)[C@H]23)OCO4)cc(OC)c1O` (some centres not stated) the T/C (dose: 1.0 mg/kg/injection, schedule: Q01DX010 (sc), vehicle: saline) was 54 % of control, the T/C (dose: 2.0 mg/kg/injection, schedule: Q01DX010 (sc), vehicle: saline) was 78 % of control and the T/C [5] was 62 % of control and 78 % of control. For the same molecule, the T/C [6] was 62 % of control and 78 % of control, the T/C [2] was 89 % of control and the T/C [7] was 39 % of control. For the same molecule, the T/C (dose: 33.0 mg/kg/injection, schedule: Q01DX010 (sc), vehicle: saline) was 109 % of control, the T/C (dose: 132.0 mg/kg/injection, schedule: Q01DX010 (sc), vehicle: saline) was 56 % of control and the T/C (dose: 264.0 mg/kg/injection, schedule: Q01DX010 (sc), vehicle: saline) was 88 % of control.
With `CCCNC1=C(C)C(=O)C2=C(C1=O)[C@H](COC(N)=O)[C@]1(OC)[C@@H]3N[C@@H]3CN21` the T/C (dose: 3.0 mg/kg/injection, schedule: Q04DX003 (sc), vehicle: suspension in saline) was 32 % of control and the T/C (dose: 24.0 mg/kg/injection, schedule: Q04DX003 (sc), vehicle: suspension in saline) was 5 % of control and 17 % of control and 28 % of control.
In the case of `C=C(C)[C@]12CC(C)C34OC(/C=C\C=C\CCCCCCCCC)(O[C@@H]1[C@@H]3[C@@H]1O[C@]1(CO)[C@@H](O)[C@]1(O)C(=O)C(C)=C[C@@H]41)O2` (some centres not stated), the T/C (dose: 3.0 mg/kg/injection, schedule: Q04DX003 (sc), vehicle: distilled water + alcohol) is reported as 84 % of control, the T/C (dose: 6.0 mg/kg/injection, schedule: Q04DX003 (sc), vehicle: distilled water + alcohol) is reported as 77 % of control and the T/C (dose: 12.0 mg/kg/injection, schedule: Q04DX003 (sc), vehicle: distilled water + alcohol) is reported as 81 % of control.
`COc1cccc2c1C(=O)c1c(O)c3c(c(O)c1C2=O)C[C@@](O)(C(=O)CO)C[C@@H]3OC1CC(N)C(O)C(C)O1` (some centres not stated) was tested, and the T/C (dose: 4.0 mg/kg/injection, schedule: Q04DX003 (sc), vehicle: water) was 45 % of control and 53 % of control, the T/C (dose: 4.5 mg/kg/injection, schedule: Q04DX003 (sc), vehicle: saline) was 72 % of control and the T/C (dose: 9.0 mg/kg/injection, schedule: Q04DX003 (sc), vehicle: saline) was 44 % of control.
In the case of `CC1=C(/C=C/C(C)=C/C=C/C(C)=C/C=O)C(C)(C)CCC1`, the T/C (dose: 75.0 mg/kg/injection, schedule: Q04DX003 (sc), vehicle: saline with Tween-80) is reported as 94 % of control, the T/C [1] is reported as 68 % of control and the T/C [8] is reported as 56 % of control and 74 % of control. For the same molecule, the T/C [4] was 57 % of control.
`COC1C(CO)OC(n2cnc3c(=S)nc(N)[nH]c32)C1O` (configuration not stated) was tested, and the T/C [9] was 118 % of control, the T/C [10] was 110 % of control and the T/C (dose: 300.0 mg/kg/injection, schedule: Q04DX003 (sc), vehicle: Klucel (hydroxypropylcellulose) (HPC)) was 86 % of control. The T/C (dose: 600.0 mg/kg/injection, schedule: Q04DX003 (sc), vehicle: Klucel (hydroxypropylcellulose) (HPC)) was 66 % of control.
With `CCCCCCC(=O)CC(SCC)c1ccccc1Cl` (configuration not stated) the T/C [8] was 82 % of control, the T/C [3] was 96 % of control and the T/C [4] was 92 % of control. The T/C (dose: 2400.0 mg/kg/injection, schedule: Q04DX003 (sc), vehicle: saline with Tween-80) was 72 % of control.
`Nc1ncnc2c1nnn2C1OC(CO)C(O)C1O` (configuration not stated) was tested, and the T/C (dose: 18.75 mg/kg/injection, schedule: Q04DX003 (sc), vehicle: Klucel (hydroxypropylcellulose) (HPC)) was 102 % of control, the T/C (dose: 37.5 mg/kg/injection, schedule: Q04DX003 (sc), vehicle: Klucel (hydroxypropylcellulose) (HPC)) was 96 % of control and the T/C [9] was 103 % of control. The T/C [10] was 80 % of control.
For `O=NN(CCCl)C(=O)NCCCl`, the T/C [5] was 44 % of control and 51 % of control and 65 % of control, the T/C (dose: 7.5 mg/kg/injection, schedule: Q04DX003 (sc), vehicle: suspension in saline) was 90 % of control and the T/C [6] was 16 % of control and 17 % of control. For the same molecule, the T/C (dose: 13.33 mg/kg/injection, schedule: Q04DX003 (sc), vehicle: saline) was 9 % of control, the T/C (dose: 15.0 mg/kg/injection, schedule: Q04DX003 (sc), vehicle: suspension in saline) was 31 % of control and the T/C [2] was -75 % of control and -72 % of control and -67 % of control. For the same molecule, the T/C (dose: 26.65 mg/kg/injection, schedule: Q04DX003 (sc), vehicle: saline) was -32 % of control, the T/C (dose: 30.0 mg/kg/injection, schedule: Q04DX003 (sc), vehicle: suspension in saline) was 1 % of control and the T/C [7] was -9 % of control and -3 % of control. The T/C (dose: 53.3 mg/kg/injection, schedule: Q04DX003 (sc), vehicle: saline) was -84 % of control and the T/C (dose: 60.0 mg/kg/injection, schedule: Q04DX003 (sc), vehicle: suspension in saline) was 16 % of control.
In the case of `C=CCc1cn(C2CC(O)C(CO)O2)c(=O)[nH]c1=O` (configuration not stated), the T/C (dose: 300.0 mg/kg/injection, schedule: Q04DX003 (sc), vehicle: saline) is reported as 91 % of control, the T/C (dose: 600.0 mg/kg/injection, schedule: Q04DX003 (sc), vehicle: saline) is reported as 82 % of control and the T/C (dose: 1200.0 mg/kg/injection, schedule: Q04DX003 (sc), vehicle: saline) is reported as 74 % of control. For the same molecule, the T/C (dose: 2400.0 mg/kg/injection, schedule: Q04DX003 (sc), vehicle: saline) was 111 % of control.
In the case of `C=C(C(=O)O)C(N)C(=O)O` (configuration not stated), the T/C (dose: 1200.0 mg/kg/injection, schedule: Q04DX003 (sc), vehicle: suspension in saline) is reported as 76 % of control.
`CC[C@@]1(O)C[C@H](OC2CC(N(C)C)C(OC3CC(O)C(OC4CCC(=O)C(C)O4)C(C)O3)C(C)O2)c2c(cc3c(c2O)C(=O)c2c(O)ccc(O)c2C3=O)[C@H]1C(=O)OC` (some centres not stated) was tested, and the T/C (dose: 3.0 mg/kg/injection, schedule: Q04DX003 (sc), vehicle: water) was 51 % of control and the T/C (dose: 6.0 mg/kg/injection, schedule: Q04DX003 (sc), vehicle: water) was 79 % of control.
In the case of `Cn1cnc([N+](=O)[O-])c1[Se]c1nc(N)nc2nc[nH]c12`, the T/C (dose: 12.5 mg/kg/injection, schedule: Q01DX010 (sc), vehicle: water) is reported as 63 % of control, the T/C (dose: 25.0 mg/kg/injection, schedule: Q01DX010 (sc), vehicle: water) is reported as 68 % of control and the T/C (dose: 50.0 mg/kg/injection, schedule: Q01DX010 (sc), vehicle: water) is reported as 176 % of control. For the same molecule, the T/C (dose: 100.0 mg/kg/injection, schedule: Q01DX010 (sc), vehicle: water) was 68 % of control.
`NC(=O)CC(N)C(=O)O` (configuration not stated) was tested, and the T/C (dose: 800.0 mg/kg/injection, schedule: Q04DX003 (sc), vehicle: saline) was 87 % of control, the T/C (dose: 1600.0 mg/kg/injection, schedule: Q04DX003 (sc), vehicle: saline) was 102 % of control and the T/C (dose: 3200.0 mg/kg/injection, schedule: Q04DX003 (sc), vehicle: saline) was 77 % of control.
